Measured values taken from US10344014B2, “Amorphous form of tetracyclic compound” (Chugai Seiyaku Kabushiki Kaisha, priority 2014, dated 2019).

What was measured:
Assay type in all cases: physicochemical
[1] = Stability test of the amorphous form, X-ray powder diffraction after storage (Example 4); set-up: key to State of the amorphous form after storage (X-ray powder diffraction peak): ◯: no peak of diffraction angle; X: clear peak of diffraction angle
Procedure: The amorphous form of 9-ethyl-6,6-dimethyl-8-(4-morpholin-4-yl-piperidin-1-yl)-11-oxo-6,11-dihydro-5H-benzo[b]carbazole-3-carbonitrilemonohydrochloride was stored under a certain condition and transition of the state of the amorphous form of the test compound was analyzed using. X-ray power diffraction as in the Test example 1.

[2] = Solubility by shake flask method, 37° C. (Example 6)
Procedure: Solubility of the amorphous form and form I crystals of 9-ethyl-6,6-dimethyl-8-(4-morpholin-4-yl-piperidin-1-yl)-11-oxo-6,11-dihydro-5H-benzo[b]carbazole-3-carbonitrilemonohydrochloride was examined using a shake flask method (37° C.).

[3] = Solubility of compound A (form I crystals) in solvents (Example 2)
Procedure: Solubility of 9-ethyl-6,6-dimethyl-8-(4-morpholin-4-yl-piperidin-1-yl)-11-oxo-6,11-dihydro-5H-benzo[b]carbazole-3-carbonitrilemonohydrochloride (hereinafter, a compound A) to each solvent was evaluated.
5 mL of each of the solvents described in Table 5 was added to 5 mg of form I crystals of the compound A. When undissolved crystals were observed, the mixture was stirred at room temperature and the crystals were dissolved using ultrasound (step 1). After the processing described, when undissolved crystals were observed the mixture was further stirred in a water bath at about 50° C. (step 2).
When the crystals were dissolved completely, the form I crystals of the compound A were further added (step 3).
The procedure of the steps 1 to 3 was repeated.
For CH2Cl2, the step 2 and the later step were performed at room temperature.

[4] = Acetate buffer pH 4.5, equilibration 1 hour
[5] = Acetate buffer pH 4.5, equilibration 24 hours, limit of quantitation 0.0004 mg/mL
[6] = First solution for dissolution test (Japanese Pharmacopoeia, 16th edition), equilibration 1 hour
[7] = First solution for dissolution test (Japanese Pharmacopoeia, 16th edition), equilibration 24 hours
[8] = Phosphate buffer pH 8.0, equilibration 1 hour, limit of quantitation 0.0004 mg/mL
[9] = Phosphate buffer pH 8.0, equilibration 24 hours, limit of quantitation 0.0004 mg/mL
[10] = Simulated intestinal fluid (SIFsp), equilibration 1 hour, limit of quantitation 0.0004 mg/mL
[11] = Simulated intestinal fluid (SIFsp), equilibration 24 hours, limit of quantitation 0.0004 mg/mL
[12] = Solution for dissolution test (4% Triton-X100 added to the first solution for dissolution test), equilibration 1 hour
[13] = Solution for dissolution test (4% Triton-X100 added to the first solution for dissolution test), equilibration 24 hours

## CCc1cc2c(cc1N1CCC(N3CCOCC3)CC1)C(C)(C)c1[nH]c3cc(C#N)ccc3c1C2=O.Cl [Amorphous, 9-ethyl-6,6-dimethyl-8-(4-morpholin-4-yl-piperidin-1-yl)-11-oxo-6,11-dihydro-5H-benzo[b]carbazole-3-carbonitrilemonohydrochloride]
[1]; 6 months, 40° C. and 75% RH, sealed condition
  Physical stability in accelerated test (in words): hardly crystallized and physically stable
[1]; 12 months, 30° C. and 75% RH, sealed condition
  Physical stability in long-term stability test (in words): hardly crystallized and physically stable
[1]; 25° C./93% RH, Open, 1 month
  State of the amorphous form after storage (X-ray powder diffraction peak): X
[1]; 25° C./93% RH, Open, 3 months
  State of the amorphous form after storage (X-ray powder diffraction peak): X
[1]; 25° C./93% RH, Open, 6 months
  State of the amorphous form after storage (X-ray powder diffraction peak): X
[1]; 30° C./75% RH, Sealed, 3 months
  State of the amorphous form after storage (X-ray powder diffraction peak): ◯
[1]; 30° C./75% RH, Sealed, 6 months
  State of the amorphous form after storage (X-ray powder diffraction peak): ◯
[1]; 30° C./75% RH, Sealed, 12 months
  State of the amorphous form after storage (X-ray powder diffraction peak): ◯
[1]; 40° C./75% RH, Sealed, 1 month
  State of the amorphous form after storage (X-ray powder diffraction peak): ◯
[1]; 40° C./75% RH, Sealed, 3 months
  State of the amorphous form after storage (X-ray powder diffraction peak): ◯
[1]; 40° C./75% RH, Sealed, 6 months
  State of the amorphous form after storage (X-ray powder diffraction peak): ◯
[2]; [4]
  Solubility: 0.0005 mg/mL
[2]; [5]
  Solubility: 0.0004 mg/mL
[2]; [6]
  Solubility: 0.0045 mg/mL
[2]; [7]
  Solubility: 0.0025 mg/mL
[2]; [8]
  Solubility: <Lower than limit of
[2]; [9]
  Solubility: <Lower than limit of
[2]; [10]
  Solubility: <Lower than limit of
[2]; [11]
  Solubility: <Lower than limit of
[2]; [12]
  Solubility: 1.1506 mg/mL
[2]; [13]
  Solubility: 1.1552 mg/mL
[2]; Water, equilibration 1 hour
  Solubility: 0.0599 mg/mL
[2]; Water, equilibration 24 hours
  Solubility: 0.0393 mg/mL
[2]; shake flask method
  Solubility compared with form I crystals (in words): higher than that of the form I crystals

## CCc1cc2c(cc1N1CCC(N3CCOCC3)CC1)C(C)(C)c1[nH]c3cc(C#N)ccc3c1C2=O.Cl [compound A, 9-ethyl-6,6-dimethyl-8-(4-morpholin-4-yl-piperidin-1-yl)-11-oxo-6,11-dihydro-5H-benzo[b]carbazole-3-carbonitrilemonohydrochloride]
[3]; 1,4-dioxane, 1 mg/mL, about 50° C. while stirring
  Solubility of compound A in solvent (dissolved or not): N/N (N: not dissolved)
[3]; 1,4-dioxane, 1 mg/mL, room temperature
  Solubility of compound A in solvent (dissolved or not): N/N (N: not dissolved)
[3]; 70% EtOH, 1 mg/mL, room temperature
  Solubility of compound A in solvent (dissolved or not): Y/— (Y: dissolved)
[3]; 70% EtOH, 2 mg/mL, room temperature
  Solubility of compound A in solvent (dissolved or not): Y/— (Y: dissolved)
[3]; 70% EtOH, 4 mg/mL, room temperature
  Solubility of compound A in solvent (dissolved or not): Y/— (Y: dissolved)
[3]; 70% EtOH, 6 mg/mL, about 50° C. while stirring
  Solubility of compound A in solvent (dissolved or not): Y (Y: dissolved)
[3]; 70% EtOH, 6 mg/mL, room temperature
  Solubility of compound A in solvent (dissolved or not): N (N: not dissolved)
[3]; 70% MeCN, 1 mg/mL, room temperature
  Solubility of compound A in solvent (dissolved or not): Y/— (Y: dissolved)
[3]; 70% MeCN, 2 mg/mL, room temperature
  Solubility of compound A in solvent (dissolved or not): Y/— (Y: dissolved)
[3]; 70% MeCN, 4 mg/mL, room temperature
  Solubility of compound A in solvent (dissolved or not): Y/— (Y: dissolved)
[3]; 70% MeCN, 6 mg/mL, room temperature
  Solubility of compound A in solvent (dissolved or not): Y/— (Y: dissolved)
[3]; 70% MeCN, 8 mg/mL, room temperature
  Solubility of compound A in solvent (dissolved or not): Y/— (Y: dissolved)
[3]; 70% MeCN, 10 mg/mL, about 50° C. while stirring, *formation of solids was observed inside the test tube
  Solubility of compound A in solvent (dissolved or not): Y (Y: dissolved)
[3]; 70% MeCN, 10 mg/mL, room temperature
  Solubility of compound A in solvent (dissolved or not): N (N: not dissolved)
[3]; 70% MeOH, 1 mg/mL, room temperature
  Solubility of compound A in solvent (dissolved or not): Y/— (Y: dissolved)
[3]; 70% MeOH, 2 mg/mL, room temperature
  Solubility of compound A in solvent (dissolved or not): Y/— (Y: dissolved)
[3]; 70% MeOH, 4 mg/mL, about 50° C. while stirring
  Solubility of compound A in solvent (dissolved or not): Y (Y: dissolved)
[3]; 70% MeOH, 4 mg/mL, room temperature
  Solubility of compound A in solvent (dissolved or not): N (N: not dissolved)
[3]; 70% THF, 1 mg/mL, room temperature
  Solubility of compound A in THF (dissolved or not): Y/— (Y: dissolved)
[3]; 70% THF, 6 mg/mL, room temperature
  Solubility of compound A in THF (dissolved or not): Y/— (Y: dissolved)
[3]; 70% THF, 8 mg/mL, room temperature
  Solubility of compound A in THF (dissolved or not): Y/— (Y: dissolved)
[3]; 70% THF, 10 mg/mL, room temperature
  Solubility of compound A in THF (dissolved or not): Y/— (Y: dissolved)
[3]; 70% THF, 12 mg/mL, room temperature
  Solubility of compound A in THF (dissolved or not): Y/— (Y: dissolved)
[3]; 70% THF, 14 mg/mL, room temperature
  Solubility of compound A in THF (dissolved or not): Y/— (Y: dissolved)
[3]; 70% acetone, 1 mg/mL, room temperature
  Solubility of compound A in solvent (dissolved or not): Y/— (Y: dissolved)
[3]; 70% acetone, 2 mg/mL, room temperature
  Solubility of compound A in solvent (dissolved or not): Y/— (Y: dissolved)
[3]; 70% acetone, 4 mg/mL, room temperature
  Solubility of compound A in solvent (dissolved or not): Y/— (Y: dissolved)
[3]; 70% acetone, 6 mg/mL, room temperature
  Solubility of compound A in solvent (dissolved or not): Y/— (Y: dissolved)
[3]; 70% acetone, 8 mg/mL, about 50° C. while stirring
  Solubility of compound A in solvent (dissolved or not): Y (Y: dissolved)
[3]; 70% acetone, 8 mg/mL, room temperature
  Solubility of compound A in solvent (dissolved or not): N (N: not dissolved)
[3]; 80% THF, 1 mg/mL, room temperature
  Solubility of compound A in THF (dissolved or not): Y/— (Y: dissolved)
[3]; 80% THF, 4 mg/mL, room temperature
  Solubility of compound A in THF (dissolved or not): Y/— (Y: dissolved)
[3]; 80% THF, 6 mg/mL, room temperature
  Solubility of compound A in THF (dissolved or not): Y/— (Y: dissolved)
[3]; 80% THF, 8 mg/mL, room temperature
  Solubility of compound A in THF (dissolved or not): Y/— (Y: dissolved)
[3]; 80% THF, 10 mg/mL, room temperature
  Solubility of compound A in THF (dissolved or not): Y/— (Y: dissolved)
[3]; 80% THF, 12 mg/mL, room temperature
  Solubility of compound A in THF (dissolved or not): Y/— (Y: dissolved)
[3]; 90% THF, 1 mg/mL, room temperature
  Solubility of compound A in THF (dissolved or not): Y/— (Y: dissolved)
[3]; 90% THF, 3 mg/mL, room temperature
  Solubility of compound A in THF (dissolved or not): Y/— (Y: dissolved)
[3]; 90% THF, 5 mg/mL, about 50° C. while stirring
  Solubility of compound A in THF (dissolved or not): N/N (N: not dissolved)
[3]; 90% THF, 5 mg/mL, room temperature
  Solubility of compound A in THF (dissolved or not): N/N (N: not dissolved)
[3]; 100% THF, 1 mg/mL, about 50° C. while stirring
  Solubility of compound A in THF (dissolved or not): N/N (N: not dissolved)
[3]; 100% THF, 1 mg/mL, room temperature
  Solubility of compound A in THF (dissolved or not): N/N (N: not dissolved)
[3]; CH2Cl2, 1 mg/mL, room temperature
  Solubility of compound A in solvent (dissolved or not): N/— (N: not dissolved)
[3]; DMSO, 1 mg/mL, room temperature
  Solubility of compound A in solvent (dissolved or not): Y/— (Y: dissolved)
[3]; DMSO, 2 mg/mL, room temperature
  Solubility of compound A in solvent (dissolved or not): Y/— (Y: dissolved)
[3]; DMSO, 4 mg/mL, about 50° C. while stirring
  Solubility of compound A in solvent (dissolved or not): Y (Y: dissolved)
[3]; DMSO, 4 mg/mL, room temperature
  Solubility of compound A in solvent (dissolved or not): N (N: not dissolved)
[3]; EtOAc, 1 mg/mL, about 50° C. while stirring
  Solubility of compound A in solvent (dissolved or not): N/N (N: not dissolved)
[3]; EtOAc, 1 mg/mL, room temperature
  Solubility of compound A in solvent (dissolved or not): N/N (N: not dissolved)
[3]; t-BuOH, 1 mg/mL, about 50° C. while stirring
  Solubility of compound A in solvent (dissolved or not): N/N (N: not dissolved)
[3]; t-BuOH, 1 mg/mL, room temperature
  Solubility of compound A in solvent (dissolved or not): N/N (N: not dissolved)

## CCc1cc2c(cc1N1CCC(N3CCOCC3)CC1)C(C)(C)c1[nH]c3cc(C#N)ccc3c1C2=O.Cl [Form I crystal, 9-ethyl-6,6-dimethyl-8-(4-morpholin-4-yl-piperidin-1-yl)-11-oxo-6,11-dihydro-5H-benzo[b]carbazole-3-carbonitrilemonohydrochloride]
[2]; [4]
  Solubility: 0.0004 mg/mL
[2]; [5]
  Solubility: <Lower than limit of
[2]; [6]
  Solubility: 0.0012 mg/mL
[2]; [7]
  Solubility: 0.0013 mg/mL
[2]; [8]
  Solubility: <Lower than limit of
[2]; [9]
  Solubility: <Lower than limit of
[2]; [10]
  Solubility: <Lower than limit of
[2]; [11]
  Solubility: <Lower than limit of
[2]; [12]
  Solubility: 0.3641 mg/mL
[2]; [13]
  Solubility: 0.4102 mg/mL
[2]; Water, equilibration 1 hour
  Solubility: 0.0286 mg/mL
[2]; Water, equilibration 24 hours
  Solubility: 0.0251 mg/mL
